Reference: patent US11241440B2, “Dihydrooxadiazine compounds for treating infections and cancer” (VALORALIA I MÁS D, SL, priority 2016, dated 2022)

System: M. chelonae
Experiment: Kirby-Bauer disk diffusion susceptibility test
Format: cell-based
Conditions: M. chelonae strain 870, isolation year 2011

Penicillin
Characteristics of strains: susceptibility or resistance: R
